According to patent US20260028337A1, “COMPOUND FOR INHIBITING IRAK4 ACTIVITY AND USE THEREOF” (SHENZHEN ZHONGGE BIOLOGICAL TECHNOLOGY CO., LTD., priority 2022, published 2026):
Structures can show the parent of a compound that is named as a salt.

Target: IRAK4 kinase (Homo sapiens (Human), UniProt Q9NWZ3)
Test: IRAK4 Kinase Inhibition Assay (Cisbio HTRF KinEASE-STK S1 kit)
Assay type: biochemical
Conditions: IRAK4 kinase protein 10 nM, ATP 200 μM, STK Substrate 1-biotin 1 μM, 37° C. 2 h, read-out: IC50 (nM), IRAK4 kinase inhibitory activity
Method: Test Example 1. IRAK4 Kinase Inhibition Assay
In this assay, Cisbio HTRF KinEASE-STK SI kit (62S 1 PEB) was used, in which assay/detection buffer, STK Substrate 1-biotin, Streptavidin-XL665, STK Antibody-Cryptate were contained.
After adding compound/DMSO to a 384-well plate (PerkinElmer 6008280) using Echo 665, 5 μL of 2-fold reaction concentration of IRAK4 kinase protein (final concentration: 10 nM) dissolved with assay buffer [1 volume of 5× kinase buffer+20 mM magnesium chloride (Sigma) solution+1 mM DTT (Alfa Aesar) solution+4 volumes deionized water] was added, followed by sealing the shallow well plate, shaking and then centrifuging at 1000 rpm for 1 min, and incubating at room temperature for 5 min; then 5 μL of 2-fold reaction concentration of a 1:1 mixture of STK Substrate 1-biotin (final concentration: 1 μM) and ATP (Sigma A1852) (final concentration: 200 μM) formulated with assay buffer was added, followed by sealing the shallow well plate, shaking and then centrifuging at 1000 rpm for 1 min, and incubating at 37° C. for 2 h, and then 10 μL of a 1:1 mixture of Streptavidin-XL665 (final concentration: 62.5 nM) and STK-antibody-cryptate dissolved with detection buffer was added, followed by sealing the shallow well plate, shaking and then centrifuging at 1000 rpm for 1 min, and incubating at room temperature for 1 h, and thereafter reading the value at the wavelength of 620 nm/665 nm using a microplate reader. The data were analyzed using Prism 9.3 software, and the IC50 value of IRAK4 kinase inhibition was fitted using a four parameter Logistic equation.

Chain of IRAK4 kinase (Q9NWZ3 whole entry): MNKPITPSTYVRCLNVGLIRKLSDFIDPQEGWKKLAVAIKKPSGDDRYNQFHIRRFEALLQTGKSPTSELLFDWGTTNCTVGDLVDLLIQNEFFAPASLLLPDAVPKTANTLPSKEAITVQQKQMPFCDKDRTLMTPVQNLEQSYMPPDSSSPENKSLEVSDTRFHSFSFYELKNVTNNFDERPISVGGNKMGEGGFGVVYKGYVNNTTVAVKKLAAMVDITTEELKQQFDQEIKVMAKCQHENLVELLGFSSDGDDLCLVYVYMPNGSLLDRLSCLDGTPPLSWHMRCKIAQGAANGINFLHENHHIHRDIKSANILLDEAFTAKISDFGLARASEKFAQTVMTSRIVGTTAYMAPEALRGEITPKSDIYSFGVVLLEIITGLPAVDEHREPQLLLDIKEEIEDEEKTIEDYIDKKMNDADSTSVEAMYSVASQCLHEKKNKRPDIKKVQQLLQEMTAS

Structure (SMILES)	IC50
O=C(O)c1cnn2c(-c3cn(-c4cn(C5CCCCC5)nc4C(F)F)nn3)ccc2c1 [Compound 61A, 7-(1-(1-cyclohexyl-3-(difluoromethyl)-1H-pyrazol-4-yl)-1H-1,2,3-triazol-4-yl]pyrrolo[1,2-b]pyridazine-3-carboxylic acid]	100 to 1000 nM
N[C@H]1CCCN(c2ccn3ncc(-c4cn(-c5cn(C6CCC(CO)CC6)nc5C(F)F)nn4)c3n2)C1 (stereo partly drawn) [Compound 103A, ((1r, 4r)-4-(4-(4-(5-((S)-3-aminopiperidin-1-yl)pyrazolo[1,5-a]pyrimidin-3-yl)-1H-1,2,3-triazol-1-yl)-3-(difluoromethyl)-1H-pyrazol-1-yl]cyclohexyl) methanol]	< 100 nM
C[C@H]1CC(n2cc(-n3cc(-c4cnn5ccc(N6CCOCC6)nc45)nn3)c(C(F)F)n2)CCN1 (stereo partly drawn) [Compound 79A, 4-(3-(1-(3-(difluoromethyl)-1-((2S)-2-methylpiperidin-4-yl)-1H-pyrazol-4-yl)-1,2,3-triazol-4-yl)pyrazolo[1,5-a]pyrimidin-5-yl) morpholine]	100 to 1000 nM
CN(C)C1CCN(c2ccn3ncc(-c4cn(-c5cn(C6CCC(CO)CC6)nc5C(F)F)nn4)c3n2)CC1 (stereo not shown) [Compound 102A, ((1r, 4r)-4-(3-(difluoromethyl)-4-(4-(5-(4-(dimethylamino)piperidin-1-yl)pyrazolo[1,5-a]pyrimidin-3-yl)-1H-1,2,3-triazol-1-yl)-1H-pyrazol-1-ylcyclohexyl)methanol]	100 to 1000 nM
FC(F)c1nn(C2CCCCC2)cc1-n1cc(-c2cnn3cccnc23)nn1 [Compound 56A, 3-(1-(1-cyclohexyl-3-(difluoromethyl)-1H-pyrazol-4-yl)-1H-1,2,3-triazol-4-yl]pyrazolo[1,5-a]pyrimidine]	1000 to 5000 nM
OC[C@H]1CC[C@H](n2cc(-n3cc(-c4cnn5ccc(N6CCC(O)C6)nc45)nn3)c(C(F)F)n2)CC1 (stereo partly shown) [Compound 101A]	100 to 1000 nM
CN1CCN(c2ccn3ncc(-c4cn(-c5cn([C@H]6CC[C@H](CO)CC6)nc5C(F)F)nn4)c3n2)CC1 [Compound 95A, (1R,4R)-4-(3-difluoromethyl)-4-(4-(5-(4-methylpiperazin-1-yl)pyrazolo[1,5-a]pyrimidin-3-yl)-1H-1,2,3-triazol-1-yl)-1H-pyrazol-1-yl)cyclohexylmethanol formate]	100 to 1000 nM
C[C@@H]1C[C@H](n2cc(-n3cc(-c4cnn5ccc(N6CCOCC6)nc45)nn3)c(C(F)F)n2)CCN1 [Compound 73A]	100 to 1000 nM
C[C@H]1CN(c2ccn3ncc(-c4cn(-c5cn(C6CCC(CO)CC6)nc5C(F)F)nn4)c3n2)C[C@H](C)O1 (stereo partly shown) [Compound 109A]	< 100 nM
O=C(c1cnn2c(-c3cn(-c4cn(C5CCCCC5)nc4C(F)F)nn3)ccc2c1)N1CCNCC1 [Compound 64A, (7-(1-(1-cyclohexyl-3-(difluoromethyl)-1H-pyrazol-4-yl)-1H-1,2,3-triazol-4-yl]pyrrolo[1,2-b]pyridazin-3-yl) (piperazin-1-yl) methanone]	1000 to 5000 nM
OC[C@H]1CC[C@H](n2cc(-n3cc(-c4cnn5ccc(NCC6CC6)nc45)nn3)c(C(F)F)n2)CC1 [Compound 94A, ((1r,4r)-4-(4-(4-(5-((cyclopropylmethyl)amino)pyrazolo[1,5-a]pyrimidin-3-yl)-1H-1,2,3-triazol-1-yl)-3-(difluoromethyl)-1H-pyrazol-1-yl)cyclohexyl)methanol]	< 100 nM
OCC1CCC(n2cc(-n3cc(-c4cnn5ccc(N6CCC[C@H](O)C6)nc45)nn3)c(C(F)F)n2)CC1 (stereo partly drawn) [Compound 112A, (S)-1-(3-(1-(3-(difluoromethyl)-1-((1r,4r)-4-(methylol)cyclohexyl)-1H-pyrazol-4-yl)-1H-1,2,3-triazol-4-yl]pyrazolo[1,5-a]pyrimidin-5-yl)piperidin-3-ol]	< 100 nM
O=C(O)c1cnc2c(ccn2-c2cn(-c3cn(C4CCCCC4)nc3C(F)F)nn2)c1 [Compound 66A, 1-(1-(1-cyclohexyl-3-(difluoromethyl)-1H-pyrazol-4-yl)-1H-1,2,3-triazol-4-yl)-1H-pyrrolo[2,3-b]pyridine-5-carboxylic acid]	1000 to 5000 nM
FC(F)c1nn(C2CCCCC2)cc1-n1cc(-c2cnn3ccc(N4CCOCC4)nc23)nn1 [Compound 4A, 4-(3-(1-(1-cyclohexyl-3-(difluoromethyl)-1H-pyrazol-4-yl)-1H-1,2,3-triazol-4-yl)pyrazolo[1,5-a]pyrimidin-5-yl) morpholine]	< 100 nM
NC1CN(c2ccn3ncc(-c4cn(-c5cn([C@H]6CC[C@H](CO)CC6)nc5C(F)F)nn4)c3n2)CC(F)(F)C1 (stereo partly shown) [Compound 108A]	< 100 nM
OCC1CCC(n2cc(-n3cc(-c4cnn5ccc(N6C[C@H]7C[C@@H]6CO7)nc45)nn3)c(C(F)F)n2)CC1 (stereo partly drawn) [Compound 105A, ((1R,4r)-4-(4-(4-(5-((1R,4r)-2-oxa-5-azabicyclo[2.2.1]heptan-5-yl)pyrazolo[1,5-a]pyrimidin-3-yl)-1H-1,2,3-triazol-1-yl)-3-(difluoromethyl)-1H-pyrazol-1-yl)cyclohexyl)methanol]	100 to 1000 nM
OC[C@H]1CC[C@H](n2cc(-n3cc(-c4cnn5ccc(N6CC7(COC7)C6)nc45)nn3)c(C(F)F)n2)CC1 [Compound 90A, ((1r, 4r)-4-(4-(4-(5-(2-oxa-6-azaspiro[3.3]heptan-6-yl)pyrazolo[1,5-a]pyrimidin-3-yl)-1H-1,2,3-triazol-1-yl)-3-(difluoromethyl)-1H-pyrazol-1-yl]cyclohexyl)methanol]	100 to 1000 nM
O=C(NC1CNCC1(F)F)c1cnn2c(-c3cn(-c4cn(C5CCCCC5)nc4C(F)F)nn3)ccc2c1 (stereo not shown) [Compound 68A, 7-(1-(1-cyclohexyl-3-(difluoromethyl)-1H-pyrazol-4-yl)-1H-1,2,3-triazol-4-yl]-N-(4,4-difluoropyrrolidin-3-yl)pyrrolo[1,2-b]pyridazine-3-formamide]	1000 to 5000 nM
NC(=O)c1cnn2c(-c3cn(-c4cn(C5CCCCC5)nc4C(F)F)nn3)ccc2c1 [Compound 60A, 7-(1-(1-cyclohexyl-3-(difluoromethyl)-1H-pyrazol-4-yl)-1H-1,2,3-triazol-4-yl) pyrrolo[1,2-b]pyridazine-3-formamide]	< 100 nM
CC1(C)COCCN1c1ccn2ncc(-c3cn(-c4cn([C@H]5CC[C@H](CO)CC5)nc4C(F)F)nn3)c2n1 [Compound 88A, ((1r,4r)-4-(3-(difluoromethyl)-4-(4-(5-(3,3-dimethylmorpholinyl)pyrazolo[1,5-a]pyrimidin-3-yl)-1H-1,2,3-triazol-1-yl)-1H-pyrazol-1-yl)cyclohexyl)methanol]	100 to 1000 nM
FC(F)c1nn(C2CCCCC2)cc1-n1cc(-n2ccc3ccc(N4CCOCC4)nc32)nn1 [Compound 45A]	1000 to 5000 nM
NC(=O)c1cnc2c(ccn2-c2cn(-c3cn(C4CCCCC4)nc3C(F)F)nn2)c1 [Compound 65A, 1-(1-(1-cyclohexyl-3-(difluoromethyl)-1H-pyrazol-4-yl)-1H-1,2,3-triazol-4-yl)-1H-pyrrolo[2,3-b]pyridine-5-formamide]	100 to 1000 nM
